Here are results for 1 compound from paper PMC5218480 (PLoS ONE, 2017).

This assay deals with MV-4-11 cells. The experiment in a line: Gene expression microarray analysis (Affymetrix PrimeView) and GSEA. Also on record: RFU PODN (11730768_x_at) / Fold change /veh PODN (11730768_x_at) / RFU LINC00158 (11744669_a_at) / Fold change /veh LINC00158 (11744669_a_at) / RFU DUSP10 (11751237_a_at) / Fold change /veh DUSP10 (11751237_a_at) / RFU ID3 (11757404_x_at) / Fold change /veh ID3 (11757404_x_at) / RFU PLEKHG5 (11737974_s_at) / Fold change /veh PLEKHG5 (11737974_s_at) / RFU LRRC4B (11730491_at) / Fold change /veh LRRC4B (11730491_at) / RFU GIMAP4 (11747438_a_at) / Fold change /veh GIMAP4 (11747438_a_at) / RFU KRT8 (11758183_x_at) / Fold change /veh KRT8 (11758183_x_at) / RFU CNN1 (11734310_a_at) / Fold change /veh CNN1 (11734310_a_at) / RFU VPS37D (11726825_at) / Fold change /veh VPS37D (11726825_at) / RFU C10orf10 (11716522_x_at) / Fold change /veh C10orf10 (11716522_x_at) / RFU KIR2DL2 /// KIR2DL4 /// KIR2DL5A /// KIR2DL5B /// KIR2DS1 /// KIR2DS2 /// KIR2DS3 /// KIR2DS4 /// KIR3DL3 /// KIR3DL3 /// KIR3DS1 (11738374_at) / Fold change /veh KIR2DL2 /// KIR2DL4 /// KIR2DL5A /// KIR2DL5B /// KIR2DS1 /// KIR2DS2 /// KIR2DS3 /// KIR2DS4 /// KIR3DL3 /// KIR3DL3 /// KIR3DS1 (11738374_at) / RFU C1QL1 (11718748_at) / Fold change /veh C1QL1 (11718748_at) / RFU TMPRSS4 (11747572_a_at) / Fold change /veh TMPRSS4 (11747572_a_at) / RFU HAMP (11756126_x_at) / Fold change /veh HAMP (11756126_x_at) / RFU RNFT2 (11725882_a_at) / Fold change /veh RNFT2 (11725882_a_at) / RFU NR4A2 (11747474_a_at) / Fold change /veh NR4A2 (11747474_a_at) / RFU ABCC12 (11746883_a_at) / Fold change /veh ABCC12 (11746883_a_at) / RFU TMEM136 (11760407_x_at) / Fold change /veh TMEM136 (11760407_x_at) / RFU CLDN22 /// WWC2 (11732394_at) / Fold change /veh CLDN22 /// WWC2 (11732394_at) / RFU HLA-DPB1 (11760878_x_at) / Fold change /veh HLA-DPB1 (11760878_x_at) / RFU SPINT1 (11716480_a_at) / Fold change /veh SPINT1 (11716480_a_at) / RFU GAP43 (11754022_s_at) / Fold change /veh GAP43 (11754022_s_at) / RFU A4GNT (11735810_at) / Fold change /veh A4GNT (11735810_at) / RFU PRB3 (11715151_x_at) / Fold change /veh PRB3 (11715151_x_at) / RFU TUBB4B (11761932_at) / Fold change /veh TUBB4B (11761932_at) / RFU CAPN14 (11732068_a_at) / Fold change /veh CAPN14 (11732068_a_at) / RFU TMCC2 (11721928_a_at) / Fold change /veh TMCC2 (11721928_a_at) / RFU IRGQ (11745062_a_at) / Fold change /veh IRGQ (11745062_a_at) / RFU FAM174B (11720279_a_at) / Fold change /veh FAM174B (11720279_a_at) / RFU TMPRSS4 (11748680_a_at) / Fold change /veh TMPRSS4 (11748680_a_at) / RFU FAM212B (11763350_a_at) / Fold change /veh FAM212B (11763350_a_at) / RFU PLEKHG5 (11743358_a_at) / Fold change /veh PLEKHG5 (11743358_a_at) / RFU ZSCAN30 (11745921_a_at) / Fold change /veh ZSCAN30 (11745921_a_at) / RFU CMKLR1 (11741424_a_at) / Fold change /veh CMKLR1 (11741424_a_at) / RFU LOC101060620 /// MAPK8IP1 (11723275_at) / Fold change /veh LOC101060620 /// MAPK8IP1 (11723275_at) / RFU SPTSSB (11747773_x_at) / Fold change /veh SPTSSB (11747773_x_at) / RFU PRSS12 (11739890_at) / Fold change /veh PRSS12 (11739890_at) / RFU BIN1 (11741810_x_at) / Fold change /veh BIN1 (11741810_x_at) / RFU WNT11 (11732464_a_at) / Fold change /veh WNT11 (11732464_a_at) / RFU C10orf10 (11716521_a_at) / Fold change /veh C10orf10 (11716521_a_at) / RFU C5orf56 (11738089_at) / Fold change /veh C5orf56 (11738089_at) / RFU CYB561 (11721691_x_at) / Fold change /veh CYB561 (11721691_x_at) / RFU ANKRD19P (11752326_a_at) / Fold change /veh ANKRD19P (11752326_a_at) / RFU OR2T12 /// OR2T33 /// OR2T8 (11738714_s_at) / Fold change /veh OR2T12 /// OR2T33 /// OR2T8 (11738714_s_at) / RFU VCAN (11748164_a_at) / Fold change /veh VCAN (11748164_a_at) / RFU JSRP1 (11732532_at) / Fold change /veh JSRP1 (11732532_at) / RFU KRTAP10-11 (11738290_x_at) / Fold change /veh KRTAP10-11 (11738290_x_at) / RFU MYO3A (11730013_a_at) / Fold change /veh MYO3A (11730013_a_at) / RFU EBF3 (11725865_a_at) / Fold change /veh EBF3 (11725865_a_at) / RFU CAMK2N1 (11719241_x_at) / Fold change /veh CAMK2N1 (11719241_x_at) / RFU C5orf56 (11738088_a_at) / Fold change /veh C5orf56 (11738088_a_at) / RFU OLFML3 (11715873_a_at) / Fold change /veh OLFML3 (11715873_a_at) / RFU LOC100653217 /// NTM (11731650_a_at) / Fold change /veh LOC100653217 /// NTM (11731650_a_at) / RFU MAPK11 (11762145_a_at) / Fold change /veh MAPK11 (11762145_a_at) / RFU FIZ1 (11724087_x_at) / Fold change /veh FIZ1 (11724087_x_at) / RFU OASL (11726364_x_at) / Fold change /veh OASL (11726364_x_at) / RFU SOX15 (11748057_x_at) / Fold change /veh SOX15 (11748057_x_at) / RFU CD79A (11719716_a_at) / Fold change /veh CD79A (11719716_a_at) / RFU HIST1H1D (11736915_at) / Fold change /veh HIST1H1D (11736915_at) / RFU CASKIN2 (11723855_a_at) / Fold change /veh CASKIN2 (11723855_a_at) / RFU LOC730098 (11760151_x_at) / Fold change /veh LOC730098 (11760151_x_at) / RFU OR4N2 (11742367_at) / Fold change /veh OR4N2 (11742367_at) / RFU PRRT2 (11749266_a_at) / Fold change /veh PRRT2 (11749266_a_at) / RFU SNX32 (11753110_a_at) / Fold change /veh SNX32 (11753110_a_at) / RFU CDHR5 (11726645_a_at) / Fold change /veh CDHR5 (11726645_a_at) / RFU RCAN1 (11760418_a_at) / Fold change /veh RCAN1 (11760418_a_at) / RFU FAM167A (11723789_a_at) / Fold change /veh FAM167A (11723789_a_at) / RFU FAM26E (11764081_at) / Fold change /veh FAM26E (11764081_at) / RFU ISYNA1 (11749810_s_at) / Fold change /veh ISYNA1 (11749810_s_at) / RFU ACY1 (11761880_at) / Fold change /veh ACY1 (11761880_at) / RFU 11764098_at / Fold change /veh 11764098_at / RFU SAMD14 (11745864_x_at) / Fold change /veh SAMD14 (11745864_x_at) / RFU NPB (11741838_a_at) / Fold change /veh NPB (11741838_a_at) / RFU TMPRSS6 (11731388_a_at) / Fold change /veh TMPRSS6 (11731388_a_at) / RFU KRTAP10-2 (11738614_at) / Fold change /veh KRTAP10-2 (11738614_at) / RFU ARHGAP8 /// PRR5-ARHGAP8 (11727945_x_at) / Fold change /veh ARHGAP8 /// PRR5-ARHGAP8 (11727945_x_at) / RFU KRTAP5-7 /// NADSYN1 (11734609_at) / Fold change /veh KRTAP5-7 /// NADSYN1 (11734609_at) / RFU RASL12 (11751679_a_at) / Fold change /veh RASL12 (11751679_a_at) / RFU CDKN2B (11736163_a_at) / Fold change /veh CDKN2B (11736163_a_at) / RFU PRF1 (11729649_at) / Fold change /veh PRF1 (11729649_at) / RFU, ZNF638 /// ZNF638-IT1 / Fold change vs veh, ZNF638 /// ZNF638-IT1 / RFU, PANK3 / Fold change vs veh, PANK3 / RFU, SH3YL1 / Fold change vs veh, SH3YL1 / RFU, ZEB2 / Fold change vs veh, ZEB2 / RFU, NRIP1 / Fold change vs veh, NRIP1 / RFU, PTTG1IP / Fold change vs veh, PTTG1IP / RFU, CAPN2 / Fold change vs veh, CAPN2 / RFU, MED14 / Fold change vs veh, MED14 / RFU, SNORA58 / Fold change vs veh, SNORA58 / RFU, C1orf63 / Fold change vs veh, C1orf63 / RFU, LRRFIP1 / Fold change vs veh, LRRFIP1 / RFU, NDUFAF7 / Fold change vs veh, NDUFAF7 / RFU, SLC12A2 / Fold change vs veh, SLC12A2 / RFU, IBTK / Fold change vs veh, IBTK / RFU, ESF1 / Fold change vs veh, ESF1 / Fold change vs veh, TMEM50B / RFU, TAOK1 / Fold change vs veh, TAOK1 / RFU, ACBD3 / Fold change vs veh, ACBD3 / RFU, TMA16 / Fold change vs veh, TMA16 / RFU, RWDD3 / Fold change vs veh, RWDD3 / RFU, BCAT1 / Fold change vs veh, BCAT1 / RFU, EDEM3 / Fold change vs veh, EDEM3 / RFU, TMEM33 / Fold change vs veh, TMEM33 / RFU, WDR75 / Fold change vs veh, WDR75 / RFU, AHCTF1 / Fold change vs veh, AHCTF1 / RFU, TFRC / Fold change vs veh, TFRC / RFU, ZDHHC17 / Fold change vs veh, ZDHHC17 / RFU, NOM1 / Fold change vs veh, NOM1 / RFU, ARL8B / Fold change vs veh, ARL8B / RFU, ZBTB11 / Fold change vs veh, ZBTB11 / RFU, TAMM41 / Fold change vs veh, TAMM41 / RFU, KIAA1704 /// LOC100996395 / Fold change vs veh, KIAA1704 /// LOC100996395 / RFU, ING1 / Fold change vs veh, ING1 / RFU, TRMT61B / Fold change vs veh, TRMT61B / RFU, FUBP3 / Fold change vs veh, FUBP3 / RFU, TP53 / Fold change vs veh, TP53 / RFU, TNKS2 / Fold change vs veh, TNKS2 / RFU, ZFP14 / Fold change vs veh, ZFP14 / RFU, ACTR2 / Fold change vs veh, ACTR2 / RFU, PPP3R1 / Fold change vs veh, PPP3R1 / RFU, PIK3R1 / Fold change vs veh, PIK3R1 / RFU, HNRNPA1 / Fold change vs veh, HNRNPA1 / RFU, RNF170 / Fold change vs veh, RNF170 / RFU, ZNF28 / Fold change vs veh, ZNF28 / RFU, RNGTT / Fold change vs veh, RNGTT / RFU, OGT / Fold change vs veh, OGT / RFU, BRD1 / Fold change vs veh, BRD1 / RFU, MARS / Fold change vs veh, MARS / RFU, ZNF655 / Fold change vs veh, ZNF655 / RFU, FAHD1 / Fold change vs veh, FAHD1 / RFU, BDP1 / Fold change vs veh, BDP1 / RFU, LRRCC1 / Fold change vs veh, LRRCC1 / RFU, ARID1A / Fold change vs veh, ARID1A / RFU, ZNF146 / Fold change vs veh, ZNF146 / RFU, ZNF330 / Fold change vs veh, ZNF330 / RFU, GPN3 / Fold change vs veh, GPN3 / RFU, C9orf123 / Fold change vs veh, C9orf123 / RFU, N4BP2L2 / Fold change vs veh, N4BP2L2 / RFU, ARFIP1 / Fold change vs veh, ARFIP1 / RFU, FAM179B / Fold change vs veh, FAM179B / RFU, BCL10 / Fold change vs veh, BCL10 / RFU, UHRF1BP1L / Fold change vs veh, UHRF1BP1L / RFU, BET1 / Fold change vs veh, BET1 / RFU, CNOT2 / Fold change vs veh, CNOT2 / RFU, ZNF268 / Fold change vs veh, ZNF268 / Fold change vs veh, ZNF507 / RFU, DGCR2 / Fold change vs veh, DGCR2 / RFU, WDSUB1 / Fold change vs veh, WDSUB1 / Fold change vs veh, HSP90B1 /// MIR3652 / RFU, ADSS / Fold change vs veh, ADSS / RFU, GK / Fold change vs veh, GK / RFU, ZNF148 / Fold change vs veh, ZNF148 / RFU, TAF9 / Fold change vs veh, TAF9 / RFU, SLC1A5 / Fold change vs veh, SLC1A5 / RFU, SLMO2 / Fold change vs veh, SLMO2 / RFU, ABCC4 / Fold change vs veh, ABCC4 / RFU, LOC101060439 /// RAP1B / Fold change vs veh, LOC101060439 /// RAP1B / RFU, RFX7 / Fold change vs veh, RFX7 / RFU, GTPBP10 / Fold change vs veh, GTPBP10 / RFU, CNEP1R1 / Fold change vs veh, CNEP1R1 / RFU, BIVM-ERCC5 /// ERCC5 / Fold change vs veh, BIVM-ERCC5 /// ERCC5 / RFU, ILF3 / Fold change vs veh, ILF3 / RFU 11762660_at / Fold change /veh 11762660_at / RFU VCAN (11757783_s_at) / Fold change /veh VCAN (11757783_s_at) / RFU DDX43 (11728927_at) / Fold change /veh DDX43 (11728927_at) / RFU KRT8 (11758188_x_at) / Fold change /veh KRT8 (11758188_x_at) / RFU NKD1 (11759106_at) / Fold change /veh NKD1 (11759106_at) / RFU SRD5A1 (11742802_a_at) / Fold change /veh SRD5A1 (11742802_a_at) / RFU TPSAB1 /// TPSB2 (11721975_s_at) / Fold change /veh TPSAB1 /// TPSB2 (11721975_s_at) / RFU GSTM3 (11746129_a_at) / Fold change /veh GSTM3 (11746129_a_at) / RFU IL23R (11737362_x_at) / Fold change /veh IL23R (11737362_x_at) / RFU TMEM51 (11727254_a_at) / Fold change /veh TMEM51 (11727254_a_at) / RFU PIWIL2 (11732686_x_at) / Fold change /veh PIWIL2 (11732686_x_at) / RFU ORM1 (11744905_x_at) / Fold change /veh ORM1 (11744905_x_at) / RFU CCDC152 (11743942_at) / Fold change /veh CCDC152 (11743942_at) / RFU ECM1 (11717891_a_at) / Fold change /veh ECM1 (11717891_a_at) / RFU IL23R (11748794_a_at) / Fold change /veh IL23R (11748794_a_at) / RFU TNFAIP8L3 (11732012_x_at) / Fold change /veh TNFAIP8L3 (11732012_x_at) / RFU MBOAT4 (11741988_at) / Fold change /veh MBOAT4 (11741988_at) / RFU 11764193_at / Fold change /veh 11764193_at / RFU TMEM53 (11763286_at) / Fold change /veh TMEM53 (11763286_at) / RFU MAGEB2 (11727129_at) / Fold change /veh MAGEB2 (11727129_at) / RFU TMEM200A (11744735_a_at) / Fold change /veh TMEM200A (11744735_a_at) / RFU CCDC152 (11751479_a_at) / Fold change /veh CCDC152 (11751479_a_at) / RFU FAM211A (11726209_a_at) / Fold change /veh FAM211A (11726209_a_at) / RFU RGS16 (11746705_a_at) / Fold change /veh RGS16 (11746705_a_at) / RFU VCAN (11755009_s_at) / Fold change /veh VCAN (11755009_s_at) / RFU RHOB (11743442_s_at) / Fold change /veh RHOB (11743442_s_at) / RFU RGS16 (11720943_a_at) / Fold change /veh RGS16 (11720943_a_at) / RFU RGS16 (11720944_at) / Fold change /veh RGS16 (11720944_at) / RFU, VPS4B / Fold change vs veh, VPS4B / RFU, CREB1 / Fold change vs veh, CREB1 / RFU, DNAJC13 / Fold change vs veh, DNAJC13 / RFU, GNAQ / Fold change vs veh, GNAQ / RFU, CDK5R1 / Fold change vs veh, CDK5R1 / RFU, ZRANB3 / Fold change vs veh, ZRANB3 / RFU, CUL4A / Fold change vs veh, CUL4A / RFU, CCNY / Fold change vs veh, CCNY / RFU, UFL1 / Fold change vs veh, UFL1 / RFU, COG3 / Fold change vs veh, COG3 / RFU, DIAPH2 / Fold change vs veh, DIAPH2 / RFU, SKA2 / Fold change vs veh, SKA2 / RFU, AFF3 / Fold change vs veh, AFF3 / RFU, LMF1 / Fold change vs veh, LMF1 / RFU, IPO11 / Fold change vs veh, IPO11 / RFU, DFFB / Fold change vs veh, DFFB / RFU, FOXP1 / Fold change vs veh, FOXP1 / RFU, CARD8 / Fold change vs veh, CARD8 / RFU, STRN3 / Fold change vs veh, STRN3 / RFU, ADK / Fold change vs veh, ADK / RFU, RASSF2 / Fold change vs veh, RASSF2 / RFU, WIPF1 / Fold change vs veh, WIPF1 / RFU, LARP1B / Fold change vs veh, LARP1B / RFU, RASA1 / Fold change vs veh, RASA1 / RFU, RB1 / Fold change vs veh, RB1 / RFU, PPFIA1 / Fold change vs veh, PPFIA1 / RFU, MAT2A / Fold change vs veh, MAT2A / RFU, CCT5 / Fold change vs veh, CCT5 / RFU, WDR92 / Fold change vs veh, WDR92 / RFU, CUX1 / Fold change vs veh, CUX1 / RFU, TTC7A / Fold change vs veh, TTC7A / RFU, TMEM135 / Fold change vs veh, TMEM135 / RFU, DEPTOR / Fold change vs veh, DEPTOR / RFU, CPM / Fold change vs veh, CPM / RFU, DNAJB6 / Fold change vs veh, DNAJB6 / RFU, CACNA2D3 / Fold change vs veh, CACNA2D3 / RFU, DTX4 / Fold change vs veh, DTX4 / RFU, TFCP2 / Fold change vs veh, TFCP2 / RFU, GMCL1 /// GMCL1P1 / Fold change vs veh, GMCL1 /// GMCL1P1 / RFU, AEBP2 / Fold change vs veh, AEBP2 / RFU, SNHG1 /// SNORD22 /// SNORD25 /// SNORD26 /// SNORD27 /// SNORD28 /// SNORD29 /// SNORD31 / Fold change vs veh, SNHG1 /// SNORD22 /// SNORD25 /// SNORD26 /// SNORD27 /// SNORD28 /// SNORD29 /// SNORD31 / Fold change (Aza/veh), C12orf56 (ProbeSet 11735607_a_at) / Fold change (ACY-1035/veh), C12orf56 (ProbeSet 11735607_a_at) / Fold change (Aza/veh), FGFR1OP (ProbeSet 11751329_s_at) / Fold change (ACY-1035/veh), FGFR1OP (ProbeSet 11751329_s_at) / Fold change (Aza/veh), VPS36 (ProbeSet 11739960_a_at) / Fold change (ACY-1035/veh), VPS36 (ProbeSet 11739960_a_at) / RFU SYPL1 (11715823_x_at) / Fold change /veh SYPL1 (11715823_x_at) / RFU IGFBP7 (11715501_s_at) / Fold change /veh IGFBP7 (11715501_s_at) / RFU REEP3 (11722064_at) / Fold change /veh REEP3 (11722064_at) / RFU IGLL1 (11728026_x_at) / Fold change /veh IGLL1 (11728026_x_at): dose or concentration left out as unconfirmed. Conditions: MV-4-11 cells, 48 hours. Type of assay: cell-based, human.

Take `Nc1ncn([C@@H]2O[C@H](CO)[C@@H](O)[C@H]2O)c(=O)n1` [azacitidine]: the “Fold change /veh FAM26E (11764081_at)” value turned out to be 0.84.
